One block for each compound: values may come before it. Residues, ends and D or L forms follow the SMILES beside them. *: point of attachment. Cbz = O=C(OCc1ccccc1)*; CH2F = FC*
Columns and labels:
OCI-Ly1-S cells [1] = test: Cell Titer-Glo viability assay and Chou-Talalay synergy analysis, parental OCI-Ly1-S cells; format: cell-based, human
OCI-Ly1-R cells = test: Cell Titer-Glo viability assay, venetoclax-resistant OCI-Ly1-R cells; format: cell-based, human; conditions: for restoration of venetoclax sensitivity: combination with venetoclax, OCI-Ly1-R cells
[2] = test system: ID3 knockout OCI-Ly1 cells; test: Viability of single-cell clones from ID3 knockout OCI-Ly1 cells; format: cell-based, human; conditions: single cell clones from ID3 knockout line, viability at 24 hours
Description: (§1) Cell viability assay. The Cell Titer-Glo Luminescent Cell Viability Assay (Promega) was used to determine the relative number of viable cells after drug treatment. 0.2×10^6 cells/mL were seeded in a 24 well-plate and treated with drugs for 24 or 48 hours. The viability assay was conducted using the manufacturer's protocol after treatment. Values were normalized to DMSO-treated cells. Plates were read on a SpectraMax M3 reader (Molecular Devices).
Single-cell cloning of the ID3 knockout. OCI-Ly1 cells was performed using […] dilution strategy. Cells from the bulk ID3 OCI-Ly1 were seeded at a concentration of 0.5 cells/well in a 96-well plate (5 plates per cell line). To investigate the presence of mutations, 6 clones per sgRNA were analyzed by PCR and Sanger sequencing using primers flanking the target sites for the sgRNAs (Forward primer: 5′-[…]-3′ (SEQ ID NO:1); Reverse:5′-[…]-3′ (SEQ ID NO:2)). The absence of ID3 protein were confirmed in clones harboring loss-of-function mutations by western blot (FIG. 8d). Three different knockout single-cell clones for each sgRNA were used for further functional studies.

[3] = test system: knockout and overexpression OCI-Ly1 cell lines; test: Viability/growth of single-gene knockout and overexpression OCI-Ly1 cell lines; format: cell-based, human; conditions: individual knockout cell lines vs lines transduced with 2 non-targeting control sgRNAs; P<0.05
Description: as §1
Cloning of sgRNA vectors. […]
Generation of engineered cell lines. […] As confirmation that the engineered cell lines expressed the expected alterations, Applicants: (i) evaluated the expression of the targeted protein by western-blotting (FIG. 6d), and (ii) for the CRISPR-Cas9 engineered cell lines, performed targeted DNA sequencing for the CRISPR target sites before and after 2 weeks of exposure to venetoclax (100 nM), and assessed the proportion of frameshift indels (FIG. 6g). […] Following PCR, samples were purified with Agencourt AMPure XP beads (Beckman Coulter) and quantified on a Bioanalyzer (Agilent) with High Sensitivity DNA chips. Sample libraries were diluted to 4 nM, pooled, and ran on the Illumina MiSeq platform using single-end sequencing with the following parameters: read 1: 296nt, index 1: 6nt.

OCI-Ly1-S cells [4] = test: Seahorse oxygen consumption (OCR) and extracellular acidification rate (ECAR), OCI-Ly1-S; format: cell-based, human
Description: Measurement of oxygen consumption and extracellular acidification rate. For each condition, 1.25×10^5 cells were counted and plated on a Seahorse plate coated with Cell-Tak (Corning Life Sciences) in Seahorse XF DMEM media (Agilent). OCR and ECAR were recorded using a Seahorse XF96 Analyzer (Agilent) for 24 consecutive measurements. OCR is measured before and after the addition of inhibitors to assess mitochondrial function by deriving several parameters of mitochondrial respiration: (i) basal respiration, (ii) ATP-linked respiration and proton leak respiration (after 3 μM oligomycin [Sigma], a complex V inhibitor) and (iii) maximal respiration (after 1 μM carbonyl cyanide m-chlorophenyl hydrazine (CCCP) [Sigma], a protonophore).
To measure the effect of venetoclax on OCR/ECAR, cells were pre-treated for 1 h with […] of zVAD-FMK (Abcam) or left untreated and OCR/ECAR were recorded for 4 measurements before injection of venetoclax at a final concentration of 100 nM. DMSO injection was used as control.

CLL patients = CLL patients treated with venetoclax in clinical trials (response, progression); format: in vivo, human
From the text: Human samples. Genomic DNA was isolated (DNAeasy Blood and Tissue Kit, Qiagen) from specimens collected from CLL patients enrolled on clinical trials of venetoclax treatment (NCT01328626, NCT02141282), approved by and conducted in accordance with the principles of the Declaration of Helsinki and with the approval of the Institutional Review Boards (IRB) of the University of Texas/MD Anderson Cancer Center (MDACC; Patients 1, 3, 4) or of Dana-Farber Cancer Institute (DFCI; Patient 2, 5, 6). Blood and/or tissue tumor samples were collected at baseline, before initiation of venetoclax therapy, and at relapse or progression on venetoclax.

[5] = 6 CLL patients progressing on venetoclax

Compound: Cc1c(-c2c(-c3ccc(F)o3)sc3ncnc(O[C@H](Cc4ccccc4OCc4ccnn4CC(F)(F)F)C(=O)O)c23)ccc(OCCN2CCN(C)CC2)c1Cl [S63845]
combination index (synergy with venetoclax) (OCI-Ly1-S cells [1]; combination with venetoclax, OCI-Ly1-S cells, Chou-Talalay method): < 1 | synergy with venetoclax (OCI-Ly1-R cells; OCI-Ly-R cells): synergized | restoration of venetoclax sensitivity (OCI-Ly1-R cells): restore venetoclax sensitivity

Compound: CC[C@H]1/C=C/C=C/C[C@@H](C)[C@H](O)[C@@](C)(O)C(=O)[C@@H](C)[C@H](O)[C@@H](C)C(=O)[C@@H](C)[C@H](O)[C@@H](C)/C=C/C(=O)O[C@@H]2[C@H](C)[C@H](CC1)O[C@]1(CC[C@H](C)[C@H](C[C@@H](C)O)O1)[C@H]2C [oligomycin]
sensitivity to the combination with venetoclax vs control cells [2]: more sensitive | restoration of venetoclax sensitivity (OCI-Ly1-R cells): restore sensitivity to venetoclax

median increase in IC50 [3]: 2.1 fold | IC50 (OCI-Ly1-R cells; Homo sapiens, OCI-Ly1-R cells generated by chronic in vitro drug exposure): 1000 nM
Compound: CC1(C)CCC(CN2CCN(c3ccc(C(=O)NS(=O)(=O)c4ccc(NCC5CCOCC5)c([N+](=O)[O-])c4)c(Oc4cnc5[nH]ccc5c4)c3)CC2)=C(c2ccc(Cl)cc2)C1 [venetoclax]
IC50 (OCI-Ly1-S cells [1]; Homo sapiens, parental OCI-Ly1-S cells): 4 nM | decrease in oxygen consumption (OCI-Ly1-S cells [4]; OCI-Ly1-S cells, within 20 minutes after drug exposure, venetoclax 100 nM): 2 fold | median time to relapse (CLL patients; [5]): 16.4 months | range of time to relapse (CLL patients; [5]): 5.1-22.8 months | Time to progression (months) (CLL patients; Patient 1, daily dose 400 mg): 22.8 months | Time to progression (months) (CLL patients; Patient 2, daily dose 400 mg): 7.1 months | Time to progression (months) (CLL patients; Patient 3, daily dose 400 mg): 16.4 months | Time to progression (months) (CLL patients; Patient 4, daily dose 400 mg): 5.1 months | Time to progression (months) (CLL patients; Patient 5, daily dose 400 mg): 8.2 months | Time to progression (months) (CLL patients; Patient 6, daily dose 1200 mg then 400 mg): 22.8 months

Compound: COC(=O)C[C@H](NC(=O)[C@H](C)NC(=O)[C@@H](NC(=O)OCc1ccccc1)C(C)C)C(=O)CF [zVAD] (Cbz-Val-Ala-Asp(OMe)-CH2F)
prevention of venetoclax impact on OXPHOS (OCI-Ly1-S cells [4]; 1 h pre-treatment with zVAD-FMK before venetoclax): not fully prevented

From patent US20220401460A1, “MODULATING RESISTANCE TO BCL-2 INHIBITORS” (Dana-Farber Cancer Institute, Inc., priority 2018, published 2022)
